Patent US20060134102A1, “Lymphotoxin beta receptor agents in combination with chemotherapeutic agents” (Biogen Idec MA Inc., priority 2002, published 2006)

Tested on: KM-20L2 human colorectal adenocarcinoma
Experiment: KM-20L2 xenograft model: growth of established KM-20L2 human colorectal tumors in athymic nude mice (tumor volume/weight, % T/C, Fa, Combination Index)
Type: in vivo

Nc1ccn([C@@H]2O[C@H](CO)[C@@H](O)C2(F)F)c(=O)n1 [Gemcitabine, gemcitabine, reference compound]
Mean Fraction Affected (Fa) (Gem 5 mg/kg, Day 9): 0.097
Mean Fraction Affected/Fraction Unaffected (Fa/Fu) (Gem 5 mg/kg, Day 9): 0.107
Mean Tumor Volume (Gem 5 mg/kg, Day 9): 101.0 cubic mm
Mean Tumor Volume Decrease (Gem 5 mg/kg, Day 9): 10.8 cubic mm
Mean Fraction Affected (Fa) (Gem 5 mg/kg, Day 13): 0.178
Mean Fraction Affected/Fraction Unaffected (Fa/Fu) (Gem 5 mg/kg, Day 13): 0.217
Mean Tumor Volume (Gem 5 mg/kg, Day 13): 141.8 cubic mm
Mean Tumor Volume Decrease (Gem 5 mg/kg, Day 13): 30.8 cubic mm
Mean Fraction Affected (Fa) (Gem 5 mg/kg, Day 16): 0.230
Mean Fraction Affected/Fraction Unaffected (Fa/Fu) (Gem 5 mg/kg, Day 16): 0.298
Mean Tumor Volume (Gem 5 mg/kg, Day 16): 204.1 cubic mm
Mean Tumor Volume Decrease (Gem 5 mg/kg, Day 16): 60.9 cubic mm
Mean Fraction Affected (Fa) (Gem 5 mg/kg, Day 20): 0.310
Mean Fraction Affected/Fraction Unaffected (Fa/Fu) (Gem 5 mg/kg, Day 20): 0.449
Mean Tumor Volume (Gem 5 mg/kg, Day 20): 276.8 cubic mm
Mean Tumor Volume Decrease (Gem 5 mg/kg, Day 20): 124.2 cubic mm
Mean Fraction Affected (Fa) (Gem 5 mg/kg, Day 23): 0.295
Mean Fraction Affected/Fraction Unaffected (Fa/Fu) (Gem 5 mg/kg, Day 23): 0.419
Mean Tumor Volume (Gem 5 mg/kg, Day 23): 371.6 cubic mm
Mean Tumor Volume Decrease (Gem 5 mg/kg, Day 23): 155.6 cubic mm
Mean Fraction Affected (Fa) (Gem 5 mg/kg, Day 27): 0.242
Mean Fraction Affected/Fraction Unaffected (Fa/Fu) (Gem 5 mg/kg, Day 27): 0.320
Mean Tumor Volume (Gem 5 mg/kg, Day 27): 506.7 cubic mm
Mean Tumor Volume Decrease (Gem 5 mg/kg, Day 27): 161.9 cubic mm
Mean Fraction Affected (Fa) (Gem 5 mg/kg, Day 30): 0.245
Mean Fraction Affected/Fraction Unaffected (Fa/Fu) (Gem 5 mg/kg, Day 30): 0.325
Mean Tumor Volume (Gem 5 mg/kg, Day 30): 616.2 cubic mm
Mean Tumor Volume Decrease (Gem 5 mg/kg, Day 30): 200.0 cubic mm
Mean Fraction Affected (Fa) (Gem 5 mg/kg, Day 34): 0.295
Mean Fraction Affected/Fraction Unaffected (Fa/Fu) (Gem 5 mg/kg, Day 34): 0.419
Mean Tumor Volume (Gem 5 mg/kg, Day 34): 740.4 cubic mm
Mean Tumor Volume Decrease (Gem 5 mg/kg, Day 34): 309.9 cubic mm
Mean Fraction Affected (Fa) (Gem 5 mg/kg, Day 37): 0.274
Mean Fraction Affected/Fraction Unaffected (Fa/Fu) (Gem 5 mg/kg, Day 37): 0.377
Mean Tumor Volume (Gem 5 mg/kg, Day 37): 877.5 cubic mm
Mean Tumor Volume Decrease (Gem 5 mg/kg, Day 37): 330.5 cubic mm
Mean Fraction Affected (Fa) (Gem 5 mg/kg, Day 41): 0.253
Mean Fraction Affected/Fraction Unaffected (Fa/Fu) (Gem 5 mg/kg, Day 41): 0.339
Mean Tumor Volume (Gem 5 mg/kg, Day 41): 1075.3 cubic mm
Mean Tumor Volume Decrease (Gem 5 mg/kg, Day 41): 364.1 cubic mm
Mean Fraction Affected (Fa) (Gem 5 mg/kg, Day 43): 0.226
Mean Fraction Affected/Fraction Unaffected (Fa/Fu) (Gem 5 mg/kg, Day 43): 0.291
Mean Tumor Volume (Gem 5 mg/kg, Day 43): 1244.3 cubic mm
Mean Tumor Volume Decrease (Gem 5 mg/kg, Day 43): 362.4 cubic mm
Mean Fraction Affected (Fa) (Gem 10 mg/kg, Day 9): 0.084
Mean Fraction Affected/Fraction Unaffected (Fa/Fu) (Gem 10 mg/kg, Day 9): 0.092
Mean Tumor Volume (Gem 10 mg/kg, Day 9): 102.4 cubic mm
Mean Tumor Volume Decrease (Gem 10 mg/kg, Day 9): 9.4 cubic mm
Mean Fraction Affected (Fa) (Gem 10 mg/kg, Day 13): 0.184
Mean Fraction Affected/Fraction Unaffected (Fa/Fu) (Gem 10 mg/kg, Day 13): 0.225
Mean Tumor Volume (Gem 10 mg/kg, Day 13): 140.9 cubic mm
Mean Tumor Volume Decrease (Gem 10 mg/kg, Day 13): 31.7 cubic mm
Mean Fraction Affected (Fa) (Gem 10 mg/kg, Day 16): 0.362
Mean Fraction Affected/Fraction Unaffected (Fa/Fu) (Gem 10 mg/kg, Day 16): 0.568
Mean Tumor Volume (Gem 10 mg/kg, Day 16): 169.0 cubic mm
Mean Tumor Volume Decrease (Gem 10 mg/kg, Day 16): 96.0 cubic mm
Mean Fraction Affected (Fa) (Gem 10 mg/kg, Day 20): 0.422
Mean Fraction Affected/Fraction Unaffected (Fa/Fu) (Gem 10 mg/kg, Day 20): 0.731
Mean Tumor Volume (Gem 10 mg/kg, Day 20): 231.7 cubic mm
Mean Tumor Volume Decrease (Gem 10 mg/kg, Day 20): 169.3 cubic mm
Mean Fraction Affected (Fa) (Gem 10 mg/kg, Day 23): 0.410
Mean Fraction Affected/Fraction Unaffected (Fa/Fu) (Gem 10 mg/kg, Day 23): 0.694
Mean Tumor Volume (Gem 10 mg/kg, Day 23): 311.2 cubic mm
Mean Tumor Volume Decrease (Gem 10 mg/kg, Day 23): 216.0 cubic mm
Mean Fraction Affected (Fa) (Gem 10 mg/kg, Day 27): 0.376
Mean Fraction Affected/Fraction Unaffected (Fa/Fu) (Gem 10 mg/kg, Day 27): 0.602
Mean Tumor Volume (Gem 10 mg/kg, Day 27): 417.4 cubic mm
Mean Tumor Volume Decrease (Gem 10 mg/kg, Day 27): 251.2 cubic mm
Mean Fraction Affected (Fa) (Gem 10 mg/kg, Day 30): 0.388
Mean Fraction Affected/Fraction Unaffected (Fa/Fu) (Gem 10 mg/kg, Day 30): 0.634
Mean Tumor Volume (Gem 10 mg/kg, Day 30): 499.5 cubic mm
Mean Tumor Volume Decrease (Gem 10 mg/kg, Day 30): 316.7 cubic mm
Mean Fraction Affected (Fa) (Gem 10 mg/kg, Day 34): 0.388
Mean Fraction Affected/Fraction Unaffected (Fa/Fu) (Gem 10 mg/kg, Day 34): 0.635
Mean Tumor Volume (Gem 10 mg/kg, Day 34): 642.3 cubic mm
Mean Tumor Volume Decrease (Gem 10 mg/kg, Day 34): 408.0 cubic mm
Mean Fraction Affected (Fa) (Gem 10 mg/kg, Day 37): 0.401
Mean Fraction Affected/Fraction Unaffected (Fa/Fu) (Gem 10 mg/kg, Day 37): 0.669
Mean Tumor Volume (Gem 10 mg/kg, Day 37): 723.7 cubic mm
Mean Tumor Volume Decrease (Gem 10 mg/kg, Day 37): 484.3 cubic mm
Mean Fraction Affected (Fa) (Gem 10 mg/kg, Day 41): 0.399
Mean Fraction Affected/Fraction Unaffected (Fa/Fu) (Gem 10 mg/kg, Day 41): 0.664
Mean Tumor Volume (Gem 10 mg/kg, Day 41): 865.2 cubic mm
Mean Tumor Volume Decrease (Gem 10 mg/kg, Day 41): 574.2 cubic mm
Mean Fraction Affected (Fa) (Gem 10 mg/kg, Day 43): 0.393
Mean Fraction Affected/Fraction Unaffected (Fa/Fu) (Gem 10 mg/kg, Day 43): 0.647
Mean Tumor Volume (Gem 10 mg/kg, Day 43): 975.7 cubic mm
Mean Tumor Volume Decrease (Gem 10 mg/kg, Day 43): 631.0 cubic mm
Mean Fraction Affected (Fa) (Gem 20 mg/kg, Day 9): 0.053
Mean Fraction Affected/Fraction Unaffected (Fa/Fu) (Gem 20 mg/kg, Day 9): 0.056
Mean Tumor Volume (Gem 20 mg/kg, Day 9): 105.9 cubic mm
Mean Tumor Volume Decrease (Gem 20 mg/kg, Day 9): 5.9 cubic mm
Mean Fraction Affected (Fa) (Gem 20 mg/kg, Day 13): 0.357
Mean Fraction Affected/Fraction Unaffected (Fa/Fu) (Gem 20 mg/kg, Day 13): 0.555
Mean Tumor Volume (Gem 20 mg/kg, Day 13): 111.0 cubic mm
Mean Tumor Volume Decrease (Gem 20 mg/kg, Day 13): 61.6 cubic mm
Mean Fraction Affected (Fa) (Gem 20 mg/kg, Day 16): 0.623
Mean Fraction Affected/Fraction Unaffected (Fa/Fu) (Gem 20 mg/kg, Day 16): 1.655
Mean Tumor Volume (Gem 20 mg/kg, Day 16): 99.8 cubic mm
Mean Tumor Volume Decrease (Gem 20 mg/kg, Day 16): 165.2 cubic mm
Mean Fraction Affected (Fa) (Gem 20 mg/kg, Day 20): 0.748
Mean Fraction Affected/Fraction Unaffected (Fa/Fu) (Gem 20 mg/kg, Day 20): 2.966
Mean Tumor Volume (Gem 20 mg/kg, Day 20): 101.1 cubic mm
Mean Tumor Volume Decrease (Gem 20 mg/kg, Day 20): 299.9 cubic mm
Mean Fraction Affected (Fa) (Gem 20 mg/kg, Day 23): 0.721
Mean Fraction Affected/Fraction Unaffected (Fa/Fu) (Gem 20 mg/kg, Day 23): 2.579
Mean Tumor Volume (Gem 20 mg/kg, Day 23): 147.3 cubic mm
Mean Tumor Volume Decrease (Gem 20 mg/kg, Day 23): 379.9 cubic mm
Mean Fraction Affected (Fa) (Gem 20 mg/kg, Day 27): 0.663
Mean Fraction Affected/Fraction Unaffected (Fa/Fu) (Gem 20 mg/kg, Day 27): 1.970
Mean Tumor Volume (Gem 20 mg/kg, Day 27): 225.1 cubic mm
Mean Tumor Volume Decrease (Gem 20 mg/kg, Day 27): 443.5 cubic mm
Mean Fraction Affected (Fa) (Gem 20 mg/kg, Day 30): 0.605
Mean Fraction Affected/Fraction Unaffected (Fa/Fu) (Gem 20 mg/kg, Day 30): 1.530
Mean Tumor Volume (Gem 20 mg/kg, Day 30): 322.6 cubic mm
Mean Tumor Volume Decrease (Gem 20 mg/kg, Day 30): 493.6 cubic mm
Mean Fraction Affected (Fa) (Gem 20 mg/kg, Day 34): 0.578
Mean Fraction Affected/Fraction Unaffected (Fa/Fu) (Gem 20 mg/kg, Day 34): 1.371
Mean Tumor Volume (Gem 20 mg/kg, Day 34): 443.0 cubic mm
Mean Tumor Volume Decrease (Gem 20 mg/kg, Day 34): 607.3 cubic mm
Mean Fraction Affected (Fa) (Gem 20 mg/kg, Day 37): 0.568
Mean Fraction Affected/Fraction Unaffected (Fa/Fu) (Gem 20 mg/kg, Day 37): 1.314
Mean Tumor Volume (Gem 20 mg/kg, Day 37): 522.1 cubic mm
Mean Tumor Volume Decrease (Gem 20 mg/kg, Day 37): 685.9 cubic mm
Mean Fraction Affected (Fa) (Gem 20 mg/kg, Day 41): 0.532
Mean Fraction Affected/Fraction Unaffected (Fa/Fu) (Gem 20 mg/kg, Day 41): 1.135
Mean Tumor Volume (Gem 20 mg/kg, Day 41): 674.3 cubic mm
Mean Tumor Volume Decrease (Gem 20 mg/kg, Day 41): 765.1 cubic mm
Mean Fraction Affected (Fa) (Gem 20 mg/kg, Day 43): 0.531
Mean Fraction Affected/Fraction Unaffected (Fa/Fu) (Gem 20 mg/kg, Day 43): 1.134
Mean Tumor Volume (Gem 20 mg/kg, Day 43): 753.0 cubic mm
Mean Tumor Volume Decrease (Gem 20 mg/kg, Day 43): 853.7 cubic mm
Median Effect Dose (Given Separately, Day 16): 14.1 mg/kg
Median Effect Dose (Given Separately, Day 20): 10.1 mg/kg
Median Effect Dose (Given Separately, Day 23): 10.8 mg/kg
Median Effect Dose (Given Separately, Day 27): 12.8 mg/kg
Median Effect Dose (Given Separately, Day 30): 14.1 mg/kg
Median Effect Dose (Given Separately, Day 34): 14.8 mg/kg
Median Effect Dose (Given Separately, Day 37): 15.0 mg/kg
Median Effect Dose (Given Separately, Day 41): 16.8 mg/kg
Median Effect Dose (Given Separately, Day 43): 16.9 mg/kg
Median Effect Dose (dose of the labelled agent when huCBE11 and Gemcitabine Combined (4:5), Day 16): 4.5 mg/kg
Median Effect Dose (dose of the labelled agent when huCBE11 and Gemcitabine Combined (4:5), Day 20): 1.7 mg/kg
Median Effect Dose (dose of the labelled agent when huCBE11 and Gemcitabine Combined (4:5), Day 23): 0.7 mg/kg
Median Effect Dose (dose of the labelled agent when huCBE11 and Gemcitabine Combined (4:5), Day 27): 0.9 mg/kg
Median Effect Dose (dose of the labelled agent when huCBE11 and Gemcitabine Combined (4:5), Day 30): 0.8 mg/kg
Median Effect Dose (dose of the labelled agent when huCBE11 and Gemcitabine Combined (4:5), Day 34): 0.8 mg/kg
Median Effect Dose (dose of the labelled agent when huCBE11 and Gemcitabine Combined (4:5), Day 37): 0.5 mg/kg
Median Effect Dose (dose of the labelled agent when huCBE11 and Gemcitabine Combined (4:5), Day 41): 0.7 mg/kg
Median Effect Dose (dose of the labelled agent when huCBE11 and Gemcitabine Combined (4:5), Day 43): 0.6 mg/kg
Activity by NCI criteria (% T/C of 42 or less) (gemcitabine): active
Inhibition of tumor growth vs vehicle control (gemcitabine 20 mg/kg Days 13-55, 10 mg/kg Days 16-55, 5 mg/kg Days 13-43, separate study): Significant inhibition of tumor growth
% T/C (gemcitabine 20 mg/kg, Day 16 through Day 34): ≤ 42%
% T/C (gemcitabine 25 mg/kg, Day 17 through Day 31): ≤ 42%
Inhibition of tumor growth vs saline control (gemcitabine 140, 100, 50 and 25 mg/kg, Day 10 to Day 41): Significant inhibition of tumor growth
% T/C (gemcitabine 140, 100 and 50 mg/kg, from Days 14 or 17 for the duration of the study): ≤ 42%
